# Results reported in patent US20100003217A1, “Compounds and Pharmaceutical Compositions for the Treatment of Viral Infections” (priority 2008, published 2010).
# “And” between values parts separate entries of the source, which are not always exact repeats. Equal entries are not always repeated.
# Key:
# [1] = Metabolite profiling in rat liver microsomes; format: in vitro ADME; parameters: key: +: peak detected; ?: peak observed; ND: not detected; conditions: 50 μM Compound 1, 2 hours
# Method: Preliminary identification of putative metabolites was conducted by comparing the retention time of observed metabolites with retention times obtained with chemically synthesized standards using the following HPLC-UV method:
# Incubations with liver microsomes, liver cytosol or pig liver esterase were conducted in a final volume of 0.1 mL per incubation time point. Pooled microsomal protein (1.0 mg/mL) suspended in incubation buffer (0.1 M potassium phosphate, pH 7.4) was incubated for 2 hours at 37° C. with 50 μM Compound 1 from a stock solution in DMSO (final DMSO concentration was 0.1%); the microsomal reaction was initiated by the addition of an NADPH regenerating system (1.3 mM NADP^+, 3.3 mM glucose-6-phosphate, 0.4 U/ml glucose-6-phosphate dehydrogenase, and 3.3 mM MgCl2, final concentrations). Incubations with no NADPH or no protein served as controls. Reactions were terminated by the addition of 0.1 mL of stop solution (acetonitrile). The samples were vortex-mixed for 30 sec and then centrifuged at 10,000×g for 10 min. The supernatant was dried using a Labconco CentriVap concentrator and the dry residue reconstituted in water, transferred to an HPLC glass vial and analyzed by HPLC-UV method 2 (described above).
# Results: Preliminary identification was accomplished by comparing LC elution of metabolites with that of available synthetic standards of putative metabolites (FIG. 2). […]
# [2] = Incubation with rat liver cytosol; format: in vitro ADME; conditions: rat cytosol 1 mg/mL, 2 hours, 10 μM
# Method: Pooled liver cytosol (1.0 mg protein/mL) suspended in incubation buffer (0.1 M potassium phosphate, pH 7.4) was incubated for 2 hours at 37° C. with 10 μM Compound 1 from a stock solution in DMSO (final DMSO concentration was 0.1%); reaction was initiated with the addition of test article. Incubations with no protein served as control. Reactions were terminated by the addition of 0.1 mL of stop solution (acetonitrile). The samples were vortex-mixed for 30 sec and then centrifuged at 10,000×g for 10 min. The supernatant was dried using a Labconco CentriVap concentrator and the dry residue reconstituted in water, transferred to an HPLC glass vial and analyzed by HPLC-UV method 2 (described above).
# Metabolic stability of the proposed metabolites was conducted by incubating the chemically synthesized standards Compound 2, Compound 4 and Compound 3 as described above for Compound 1. When possible, formation of Compound 5 was verified by incubating samples with alkaline phosphatase (10 U) for 60 min at 37° C.
# [3] = Metabolite profile in rat urine; format: in vivo, male Sprague-Dawley rats; conditions: for Percent of Dose, Urine 0-24 h: after [14C]Compound 1; for % AD, estimated: from single animal HPLC distribution and mean % AD; for Total % AD, estimated / Total % AD: total of all collections; for % of total urinary excretion / Total % AD: group 1C (IV dose) urine; for urinary component, % of the administered dose (% AD) / urinary component, estimated % of the administered dose (% AD): 0-24 h; for urinary component, % of the administered dose (% AD): 50 mg/kg
# Method: Pooled urine samples were prepared for Groups 1C and 2C by mixing a fixed percent of the total volume for all four animals from the selected time points. For Group 1C, samples of the 1-, 2-, 6-, and 24-h collection intervals were pooled. For Group 2C, a pool of samples from all four animals was prepared for the 24 h collection intervals only. For 1-, 2-, and 6 h collection intervals, a urine sample of a single animal of Group 2A or 2B was used for analysis. All samples were brought to room temperature and vortexed briefly. The samples were diluted as necessary (2- to 20-fold) with appropriate aqueous mobile phase for the selected HPLC method. The pooled and diluted samples from the 24 h collection interval were centrifuged at 2040×g for 10 minutes. All other samples were analyzed without centrifugation. HPLC method 1 was used for HPLC profiling. Selected samples were analyzed by HPLC method 2 for comparison with the metabolite profile generated by microsomal and hepatocyte incubations (Examples 14 and 15) and with the metabolite profile of liver extracts.
# Percent of the administered dose (% AD) for parent drug and each metabolite at each collection period=(% of the total radioactivity in the sample attributed to the metabolite)*(total radioactivity expressed as % of the administered dose, recovered during the corresponding collection period).
# HPLC analyses of pooled urine samples of all time points were conducted for Group 1C. Metabolites R1, R2, R3, R4, R5, R6, R7 and R8 were characterized based on retention time.
# For the PO dose group, a pooled urine sample from the 24-h collection time was analyzed. For 1-, 2-, and 6-h collection times, the majority of the samples had been used for radioanalysis. The remaining samples were insufficient for proportional pooling. Therefore, single animal samples of […] groups were used for HPLC profiling. Metabolites R^1, R^2, R^3, R^4, R^5, R^6, R^7 and R^8 were characterized based on retention time.
# Table 50 contains data from single animal samples and pooled samples. To estimate overall distribution of urinary metabolites, it was assumed that the profile from a single animal is reflective of the overall average metabolite profile. Therefore, HPLC distribution data from single animals was used to calculate the percentage of administered dose excreted as various metabolites during the 1-, 2-, and 6-h collection intervals. Metabolites R1, R2, R3, R4, R5, R6, R7 and R8 were characterized based on retention time.
# [4] = PO dose urine, 1 h collection, single animal (#15, Group 2A)
# [5] = PO dose urine, 2 h collection, single animal (#20, Group 2B)
# [6] = estimated profile table, group 2C (PO dose) urine, 24 h
# [7] = estimated profile, group 2C (PO dose) urine
# [8] = estimated profile, group 2C (PO dose) urine, 1 h
# [9] = estimated profile, group 2C (PO dose) urine, 1 h, single animal % HPLC distribution
# [10] = estimated profile, group 2C (PO dose) urine, 2 h
# [11] = estimated profile, group 2C (PO dose) urine, 2 h, single animal % HPLC distribution
# [12] = group 1C (IV dose) pooled urine, 1 h collection
# [13] = group 1C (IV dose) pooled urine, 2 h collection
# [14] = group 1C (IV dose) pooled urine, 6 h collection
# [15] = group 1C (IV dose) pooled urine, 24 h collection
# [16] = group 2C (PO dose) pooled urine, 24 h collection
# [17] = PO dose urine, 6 h collection, single animal (#20, Group 2B)
Residual compound following incubation with liver cytosol [2],"Percent of Dose, Urine 0-24 h ([3]; IV)","Percent of Dose, Urine 0-24 h ([3]; Oral)","% AD (percent of administered dose) [3, 5]","% HPLC (percent of HPLC peak area in the sample extract) [3, 5]","% of total urinary excretion, estimated [3, 7]","% AD, estimated [3, 10]","% HPLC (percent of HPLC peak area in the sample extract) [3, 11]","Total % AD, estimated [3, 7]","% AD (percent of administered dose) [3, 12]","% HPLC (percent of HPLC peak area in the sample extract) [3, 12]","% AD (percent of administered dose) [3, 13]","% HPLC (percent of HPLC peak area in the sample extract) [3, 13]","% AD (percent of administered dose) [3, 14]","% HPLC (percent of HPLC peak area in the sample extract) [3, 14]","% AD (percent of administered dose) [3, 15]","% HPLC (percent of HPLC peak area in the sample extract) [3, 15]",% of total urinary excretion [3],Total % AD [3],SMILES,In vitro metabolite profile in microsomes following incubation with Compound 1 (peak detection) [1],other results
96%,,,,,,,,,,,,,,,,,,,"CC(C)(CO)C(=O)SCCOP(N)(=O)OC[C@H]1O[C@@H](n2cnc3c(=O)[nH]c(N)nc32)[C@](C)(O)[C@@H]1O (mixture of isomers) [Compound 3, {9-[(2R)2-C-methyl-β-D-ribo-furanosyl]-guanin}-5′-yl-O-(hydroxy-tert-butyl-S-acyl-2-thioethyl) phosphoramidate]",,
,18.0% of Dose,2.56% of Dose,0.06 % AD,56.2%,90.4%,0.02 % AD,56.2%,2.56 % AD,0.48 % AD,2.12%,1.79 % AD,35.1%,1.35 % AD,57.7%,14.4 % AD,86.7%,38.4%,18.0 % AD,"C[C@@]1(O)[C@H](O)[C@@H](CO)O[C@H]1n1cnc2c(=O)[nH]c(N)nc21 [2′-C-methyl guanosine, 9-(2-C-methyl-β-D-ribofuranosyl)guanine, reference compound]",+,"Total excretion (% AD), urine ([3]; IV (1C)): 18.0 % AD; Total excretion (% AD), urine ([3]; PO (2C), urine data estimated): 2.56 % AD; % AD (percent of administered dose) [3, 4]: 0.004 % AD; % HPLC (percent of HPLC peak area in the sample extract) [3, 4]: 5.33%; % AD (percent of administered dose) [3, 17]: 0.24 % AD; % HPLC (percent of HPLC peak area in the sample extract) [3, 17]: 86.18%; % AD [3, 6]: 2.14 % AD; % HPLC (percent of HPLC peak area in the sample extract) [3, 6]: 92.1%; % AD, estimated [3, 8]: 0.001 % AD; % HPLC (percent of HPLC peak area in the sample extract) [3, 9]: 5.33%; % AD, estimated ([3]; estimated profile, group 2C (PO dose) urine, 6 h): 0.40 % AD; % HPLC (percent of HPLC peak area in the sample extract) ([3]; estimated profile, group 2C (PO dose) urine, 6 h, single animal % HPLC distribution): 86.18%; % AD (percent of administered dose) [3, 16]: 2.14 % AD; % HPLC (percent of HPLC peak area in the sample extract) [3, 16]: 92.1%; % of the total urinary excretion ([3]; rat urine, IV dose 50 mg/kg): 38.4%; urinary component, % of the administered dose (% AD) ([3]; rat urine, IV dose 50 mg/kg): 18 % AD; % of the total urinary excretion ([3]; rat urine, PO dose 100 mg/kg): 90.4%; urinary component, estimated % of the administered dose (% AD) ([3]; rat urine, PO dose 100 mg/kg): 2.6 % AD"
0%,0.76% of Dose,0.001% of Dose,0.002 % AD,1.81%,0.03%,0.001 % AD,1.81%,0.001 % AD,0.52 % AD,2.29%,0.13 % AD,2.57%,0.03 % AD,1.40%,0.07 % AD,0.45%,1.62%,0.76 % AD,"C[C@@]1(O)[C@H](O)[C@@H](COP(=O)(O)NCc2ccccc2)O[C@H]1n1cnc2c(=O)[nH]c(N)nc21 [Compound 2, [(2R)-2-methyl-β-D-ribofuranosyl]guanine-N-benzylaminyl-5′-monophosphate]",,

SMILES,Residual compound following incubation with liver cytosol [2],"Percent of Dose, Urine 0-24 h ([3]; IV)","Percent of Dose, Urine 0-24 h ([3]; Oral)","% AD (percent of administered dose) [3, 5]","% HPLC (percent of HPLC peak area in the sample extract) [3, 5]","% of total urinary excretion, estimated [3, 7]","% AD, estimated [3, 10]","% HPLC (percent of HPLC peak area in the sample extract) [3, 11]","Total % AD, estimated [3, 7]","% AD (percent of administered dose) [3, 12]","% HPLC (percent of HPLC peak area in the sample extract) [3, 12]","% AD (percent of administered dose) [3, 13]","% HPLC (percent of HPLC peak area in the sample extract) [3, 13]","% AD (percent of administered dose) [3, 14]","% HPLC (percent of HPLC peak area in the sample extract) [3, 14]","% AD (percent of administered dose) [3, 15]","% HPLC (percent of HPLC peak area in the sample extract) [3, 15]",% of total urinary excretion [3],Total % AD [3],In vitro metabolite profile in microsomes following incubation with Compound 1 (peak detection) [1],other results
"CC(C)(CO)C(=O)SCCOP(=O)(NCc1ccccc1)OC[C@H]1O[C@@H](n2cnc3c(=O)[nH]c(N)nc32)[C@](C)(O)[C@@H]1O (mixture of isomers) [Compound 1, 3-hydroxy-2,2-dimethyl-thiopropionic acid S-(2-{[(2R,3R,4R,5R)-5-(2-amino-6-oxo-1,6-dihydro-purin-9-yl)-3,4-dihydroxy-4-methyl-tetrahydro-furan-2-ylmethoxy]-benzylamino-phosphoryloxy}-ethyl) ester]",100%,26.1% of Dose,0.02% of Dose,0.01 % AD,6.57%,0.73%,0.003 % AD,6.57%,0.02 % AD,21.39 % AD,93.5%,2.50 % AD,48.9%,0.71 % AD,30.5%,1.51 % AD,9.09%,55.6%,26.1 % AD,+,"Total excretion (% AD), urine ([3]; IV (1C)): 26.1 % AD; Total excretion (% AD), urine ([3]; PO (2C), urine data estimated): 0.02 % AD; % AD (percent of administered dose) [3, 4]: 0.06 % AD; % HPLC (percent of HPLC peak area in the sample extract) [3, 4]: 74.8%; % AD [3, 6]: 0.01 % AD; % HPLC (percent of HPLC peak area in the sample extract) [3, 6]: 0.30%; % AD, estimated [3, 8]: 0.01 % AD; % HPLC (percent of HPLC peak area in the sample extract) [3, 9]: 74.8%; % AD (percent of administered dose) [3, 16]: 0.01 % AD; % HPLC (percent of HPLC peak area in the sample extract) [3, 16]: 0.30%; % of the total urinary excretion ([3]; rat urine, IV dose 50 mg/kg): 55.6%; urinary component, % of the administered dose (% AD) ([3]; rat urine, IV dose 50 mg/kg): 26.1 % AD and 26 % AD; urinary component, estimated % of the administered dose (% AD) ([3]; rat urine, PO dose 100 mg/kg): 0.02 % AD; % of the total radioactivity eliminated via urine within one hour ([3]; rat urine, PO dose, 1-h time point): 74.8%; % of the total urinary excretion by 6 h ([3]; rat urine, PO dose, 6 h): 6.6%"
